Measured values from patent US20240148821A1, “PHARMACEUTICAL USE OF CYCLIC PEPTIDE COMPOUND” (CHUGAI SEIYAKU KABUSHIKI KAISHA, priority 2021, published 2024).
pIC50: −log10 of the molar value. Numbered stars: 1 amine (or outer) side, 2 acyl side, 3 side chain; on linkers, the order of the positions; unused ones are H or OH. Bridge positions count the residues as written; N and C are the ends. Square brackets hold non-standard residues; d marks the D form. Peptide text beside a SMILES is read from it. * marks the point of attachment. hPhe(3,5-F2-4-CF3) = N[C@@H](CCc1cc(F)c(C(F)(F)F)c(F)c1)C(=O)O; hPhe(3-Cl-4-CF3) = N[C@@H](CCc1ccc(C(F)(F)F)c(Cl)c1)C(=O)O; hPhe(3-F,4-CF3) = N[C@@H](CCc1ccc(C(F)(F)F)c(F)c1)C(=O)O; NMePhe(4-CF3) = CN[C@@H](Cc1ccc(C(F)(F)F)cc1)C(=O)O; hPhe(4-CF3) = N[C@@H](CCc1ccc(C(F)(F)F)cc1)C(=O)O; 3Oxa8azabicyclo(3.2.1)octane = C1CC2COCC1N2*; NMePhe(4-Cl) = CN[C@@H](Cc1ccc(Cl)cc1)C(=O)O; NMePhe(2-Cl) = CN[C@@H](Cc1ccccc1Cl)C(=O)O; hPhe(3-Cl) = N[C@@H](CCc1cccc(Cl)c1)C(=O)O; hPhe(4-Cl) = N[C@@H](CCc1ccc(Cl)cc1)C(=O)O; NMedβ3hAla = C[C@H](CC(=O)[*:2])N(C)[*:1]; NMeGly(cPent) = CN[C@H](C(=O)O)C1CCCC1; Pro(4,4-F2) = O=C(O)[C@@H]1CC(F)(F)CN1; NMeCha = CN[C@@H](CC1CCCCC1)C(=O)O; NMeAhp(2) = CCCCC[C@H](NC)C(=O)O; NMeChg = CN[C@H](C(=O)O)C1CCCCC1; NMeD = CN[C@@H](CC(=O)O)C(=O)O; NMeL = CN[C@@H](CC(C)C)C(=O)O; NMeV = CN[C@H](C(=O)O)C(C)C; d(β3hA) = C[C@@H](N)CC(=O)O; NMeS = CN[C@@H](CO)C(=O)O; NMeA = CN[C@@H](C)C(=O)O; NMeAib = CNC(C)(C)C(=O)O; Piperidide = C1CCN(*)CC1; Pyrrolidide = C1CCN(*)C1; dNMeA = CN[C@H](C)C(=O)O; Ac5c = NC1(C(=O)O)CCCC1; Aze = O=C(O)[C@@H]1CCN1; NBuGly = CCCCNCC(=O)O; Aib = CC(C)(N)C(=O)O; Sar = CNCC(=O)O; Propyl = CCC*

Target: protein-protein interaction between Kras and SOS1 (biotin-tagged human Kras loaded with GDP, His-tagged human SOS1) (Homo sapiens (Human), UniProt P01116, G12D)
Test: Protein-protein interaction inhibition between Kras and SOS1 (KrasG12D-SOS PPI) using AlphaScreen;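 also: kras produced in E. coli, Ni-coupled donor beads and streptavidin acceptor beads, excitation 680 nm with emission detected at 520–620 nm via singlet oxygen transfer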
Format: biochemical
Details: AlphaScreen; biotin-tagged human Kras loaded with GDP, His-tagged human SOS1; read-out: KRAS G12D-SOS PPI IC50

`CC[C@H](C)[C@@H]1NC(=O)[C@H](CC2CCCCC2)N(C)C(=O)C[C@@H](C)N(C)C(=O)[C@H](CC(C)C)NC(=O)C(C)(C)N(C)C(=O)[C@H](CC(C)C)NC(=O)[C@H](CCc2ccc(C(F)(F)F)cc2)NC(=O)CN(C)C(=O)[C@H](Cc2ccc(Cl)cc2)N(C)C(=O)CN(C)C(=O)CN(C)C1=O` [Compound 595] (cyclo(I[Sar][Sar][NMePhe(4-Cl)][Sar][hPhe(4-CF3)]L[NMeAib]L[NMedβ3hAla][NMeCha])) and `CC[C@H](C)[C@@H]1NC(=O)[C@H](CC2CCCCC2)N(C)C(=O)C[C@@H](C)NC(=O)[C@H](CC(C)C)N(C)C(=O)C(C)(C)NC(=O)[C@H](CC(C)C)N(C)C(=O)[C@H](CCc2ccc(C(F)(F)F)cc2)NC(=O)CN(C)C(=O)[C@H](Cc2ccc(Cl)cc2)N(C)C(=O)CN(C)C(=O)CN(C)C1=O` [Compound 615] (cyclo([Aib][NMeL][d(β3hA)][NMeCha]I[Sar][Sar][NMePhe(4-Cl)][Sar][hPhe(4-CF3)][NMeL])) are within 0.2 log units of each other in pIC50: 6.54 for the first, 6.66 for the second.

Going from `CC[C@H](C)[C@@H]1NC(=O)[C@H](CC(C)C)N(C)C(=O)C[C@@H](C(=O)N2CCCCC2)N(C)C(=O)[C@H](C(C)C)N(C)C(=O)C2(CCCC2)NC(=O)[C@@H]2CCCN2C(=O)[C@H](CCc2ccc(C(F)(F)F)c(F)c2)NC(=O)CN(C)C(=O)[C@H](CC2CCCCC2)N(C)C(=O)[C@@H]2CCN2C(=O)CN(C)C1=O` [Compound 599] ([NMeL]I[Sar][Aze][NMeCha][Sar][hPhe(3-F,4-CF3)]P[Ac5c][NMeV][NMeD]-Piperidide; lactam N-11) to `CC[C@H](C)[C@@H]1NC(=O)[C@H](C)N(C)C(=O)C[C@@H](C(=O)N2CCCCC2)N(C)C(=O)[C@H](C(C)C)N(C)C(=O)C2(CCCC2)NC(=O)[C@@H]2CCCN2C(=O)[C@H](CCc2cccc(Cl)c2)NC(=O)CN(C)C(=O)[C@H](CC2CCCCC2)N(C)C(=O)[C@@H]2CCN2C(=O)[C@H](C)N(C)C1=O` [Compound 625] ([NMeA]I[NMeA][Aze][NMeCha][Sar][hPhe(3-Cl)]P[Ac5c][NMeV][NMeD]-Piperidide; lactam N-11), the pIC50 falls from 7.92 to 7.15 (0.77 log units). The first is the more potent here.

First: CC[C@H](C)[C@@H]1NC(=O)[C@H](C)N(C)C(=O)C[C@@H](C)NC(=O)[C@H](C(C)C)N(C)C(=O)C2(CCCC2)NC(=O)[C@@H]2CCCN2C(=O)[C@H](CCc2ccc(C(F)(F)F)c(Cl)c2)NC(=O)[C@@H](C)N(C)C(=O)[C@H](CC2CCCCC2)N(C)C(=O)[C@@H]2CCN2C(=O)CN(C)C1=O [Compound 601] (cyclo([Ac5c][NMeV][d(β3hA)][NMeA]I[Sar][Aze][NMeCha][dNMeA][hPhe(3-Cl-4-CF3)]P))
Second: CCCCC[C@H]1C(=O)N[C@@H]([C@@H](C)CC)C(=O)N(C)[C@@H](C)C(=O)N2CC[C@H]2C(=O)N(C)[C@@H](COCCC)C(=O)N(C)CC(=O)N[C@@H](CCc2ccc(C(F)(F)F)c(Cl)c2)C(=O)N2CCC[C@H]2C(=O)NC2(CCCC2)C(=O)N(C)[C@@H](C2CCCC2)C(=O)N(C)[C@H](C(=O)N2C3CCC2COC3)CC(=O)N1C [Compound 622] ([NMeAhp(2)]I[NMeA][Aze][NMeS](Propyl)[Sar][hPhe(3-Cl-4-CF3)]P[Ac5c][NMeGly(cPent)][NMeD]-{3Oxa8azabicyclo(3.2.1)octane}; lactam N-11)
The pIC50 of the first is 1.71 log units lower: 7.06 for the first, 8.77 for the second.

First: CCCCN1CC(=O)N(C)[C@@H](Cc2ccc(Cl)cc2)C(=O)N(C)CC(=O)N[C@@H](CCc2ccc(C(F)(F)F)cc2)C(=O)N(C)[C@@H](CC(C)C)C(=O)NC(C)(C)C(=O)N(C)[C@@H](CC(C)C)C(=O)N[C@H](C)CC(=O)N(C)[C@@H](C)C(=O)N[C@@H]([C@@H](C)CC)C(=O)N(C)CC1=O [Compound 602] (cyclo([Aib][NMeL][d(β3hA)][NMeA]I[Sar][NBuGly][NMePhe(4-Cl)][Sar][hPhe(4-CF3)][NMeL]))
Second: CC[C@H](C)[C@@H]1NC(=O)[C@H](C(C)C)N(C)C(=O)C[C@@H](C(=O)N2CCCCC2)NC(=O)[C@H](CC(C)C)N(C)C(=O)C2(CCCC2)NC(=O)[C@H](CC(C)C)N(C)C(=O)[C@H](CCc2ccc(C(F)(F)F)cc2)NC(=O)CN(C)C(=O)[C@H](Cc2ccc(Cl)cc2)N(C)C(=O)CN(C)C(=O)CN(C)C1=O [Compound 610] ([NMeV]I[Sar][Sar][NMePhe(4-Cl)][Sar][hPhe(4-CF3)][NMeL][Ac5c][NMeL]D-Piperidide; lactam N-11)
The pIC50 of the first is 0.27 log units lower: 6.55 for the first, 6.82 for the second.

Compared with `CC[C@H](C)[C@@H]1NC(=O)[C@H](CC(C)C)N(C)C(=O)C[C@@H](C)N(C)C(=O)[C@H](C2CCCCC2)N(C)C(=O)C2(CCCC2)NC(=O)[C@@H]2CC(F)(F)CN2C(=O)[C@H](CCc2cc(F)c(C(F)(F)F)c(F)c2)NC(=O)CN(C)C(=O)[C@H](Cc2ccc(C(F)(F)F)cc2)N(C)C(=O)[C@@H]2CCN2C(=O)[C@H](C)N(C)C1=O` [Compound 606] (cyclo([Ac5c][NMeChg][NMedβ3hAla][NMeL]I[NMeA][Aze][NMePhe(4-CF3)][Sar][hPhe(3,5-F2-4-CF3)][Pro(4,4-F2)])), `CC[C@H](C)[C@@H]1NC(=O)[C@H](C)N(C)C(=O)C[C@@H](C(=O)N2CCCC2)N(C)C(=O)[C@H](C(C)C)N(C)C(=O)C2(CCCC2)NC(=O)[C@H](Cc2ccccc2Cl)N(C)C(=O)[C@H](CCc2ccc(Cl)cc2)NC(=O)CN(C)C(=O)[C@H](CC2CCCCC2)N(C)C(=O)CN(C)C(=O)CN(C)C1=O` [Compound 607] ([NMeA]I[Sar][Sar][NMeCha][Sar][hPhe(4-Cl)][NMePhe(2-Cl)][Ac5c][NMeV][NMeD]-Pyrrolidide; lactam N-11) is 1.42 log units lower in pIC50: 8.08 for the first, 6.66 for the second. The first is the more potent here.
